From PubChem BioAssay (NCI)
Where “and” joins values, the source holds several entries; their conditions need not be identical. Equal entries are not always repeated.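 Exposure lasted 48 hours, with cells grown in 96-well plates and compounds tested at five concentrations. GI50: concentration for 50% inhibition of growth. At the TGI there is no net growth.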

These compounds were tested on MDA-MB-468 breast (assay: inhibition of tumour cell growth, NCI panel, 48 h).
Compound `CO[C@@H]1CCN(c2nccc(Nc3cc4c(C(C)C)ccc(N5CC(CS(C)(=O)=O)[C@H]5C)c4cn3)n2)C[C@@H]1F` (stereo partly drawn) has a GI50 of 0.544 µM and a TGI of 4.11 µM.
`O=C(NCCc1ccccc1)Nc1ccc2cc3ccc(NC(=O)NCCc4ccccc4)cc3nc2c1` gave a GI50 of 0.81 µM and a TGI of 2.27 µM.
In the case of `N#Cc1cnc2cc(OC[C@@H](O)CO)c(NC(=O)C3CCCC3)cc2c1Nc1ccc(OCc2cccc(F)c2)c(Cl)c1`, the GI50 is reported as 0.611 µM and the TGI is reported as 2.5 µM.
`CS(=O)(=O)Nc1cc(-c2ccc3ncnc(Nc4ccc(F)c(Cl)c4)c3c2)cnc1Cl` was tested, and the GI50 was 0.236 µM and 0.21 µM and the TGI was 1.29 µM and 1.02 µM.
For `COc1ccc(/C(C)=N/NC(=O)CSc2nc3ccccc3c(=O)n2CCc2ccc(S(N)(=O)=O)cc2)cc1`, the GI50 was 2.3 µM and the TGI was 4.85 µM.
With `O=[N+]([O-])c1cccc(-c2nc(-c3ccc(Cl)cc3Cl)cn2-c2ccccc2)c1` the GI50 was 1.57 µM and the TGI was 6.75 µM.
Compound `Cc1nc(-c2cc3ccccc3oc2=O)ccc1C(=O)/C=C/c1ccccn1` has a GI50 greater than 100 µM and a TGI greater than 100 µM.
For `COc1cccc(/C=C/c2nc3c(cnn3-c3ccccc3)c(=O)[nH]2)c1`, the GI50 was 0.67 µM and the TGI was greater than 100 µM.
Work on `C/C=C/C/C=C/[C@H](C)C[C@H](O)[C@@H]1C[C@@H]2O[C@H]2/C=C/[C@@H]2OC(C)(C)O[C@H]2/C=C/C[C@H](C)CC(=O)O1` yielded a GI50 of 17.3 µM and a TGI greater than 100 µM.
In the case of `Clc1ccc(C2CC(c3cccc(Nc4ccncc4)c3)=NN2c2ccc(Cl)cc2)cc1` (stereo not drawn), the GI50 is reported as 1.4 µM and the TGI is reported as 2.92 µM.
In the case of `N#Cc1ccc(-c2c(-c3ncn[nH]3)sc(N3CCOCC3)c2C#N)c(F)c1`, the GI50 is reported as 0.242 µM and the TGI is reported as 1.55 µM.
In the case of `NCCCOc1cc2ccccc2cc1C(=O)Nc1ccc(Cl)cc1OC(=O)c1cc2ccccc2cc1OCCCN`, the GI50 is reported as 0.221 µM and the TGI is reported as 0.573 µM.
`O=C1/C=C/[C@@H](O)[C@@H]2C[C@@H](O)C[C@H]2/C=C/CCC[C@H](CCc2ccc3ncccc3c2)O1` was tested, and the GI50 was 0.0656 µM and the TGI was 0.495 µM.
In the case of `CCOC(=O)C(Cc1c[nH]c2cc(N(CCO)CCO)ccc12)(NC(C)=O)C(=O)OCC`, the GI50 is reported as 793 µM and the TGI is reported as greater than 1000 µM.
Work on `Cc1cc(C(=O)/C=C/c2ccc[nH]2)ccc1-n1ccc(C(F)(F)F)n1` yielded a GI50 of 3.76 µM and a TGI of 34.9 µM.
Compound `O=C(CSCC(=O)N/N=C/c1ccccc1O)N/N=C\c1ccccc1O` has a GI50 of 1.26 µM and a TGI of 5.85 µM.
In the case of `CN(C)C(=O)OCc1nc2c(N3CCOCC3)nc(-c3ccccc3)nc2n1C`, the GI50 is reported as 0.573 µM and the TGI is reported as 1.82 µM.
With `Cc1ccc(C(=O)c2sc3nc4c(cc3c2N)CCCC4)c(C)c1` the GI50 was 0.21 µM and the TGI was 8.42 µM.
Work on `CCCCCCCCCCCCCCCCCCNCc1ccc(Cl)cc1` yielded a GI50 of 7.87 µM and a TGI of 24.8 µM.
`CC[C@@]1(OC(=O)CN(C)C)C(=O)OCc2c1cc1n(c2=O)Cc2cc3c(N)cccc3nc2-1` showed a GI50 of 0.0128 µM and a TGI of 0.035 µM.
Work on `Cc1ccc(C(=O)NCCCOc2ccc(N3C(N)=NC(N)=NC3(C)C)cc2Cl)cc1S(=O)(=O)F` yielded a GI50 greater than 100 µM and a TGI greater than 100 µM.
`O=c1c2cc(-c3ccc(F)cc3F)ccc2n(Nc2ccccc2)c(=O)n1-c1cccc(C(F)(F)F)c1` was tested, and the GI50 was 1.99 µM and the TGI was 5.57 µM.
Compound `CNC(=O)c1cc(Oc2cccc3nc(NC(=O)Nc4cc(C(F)(F)F)cc(C(F)(F)F)c4)ccc23)ccn1` has a GI50 of 3.4 µM and a TGI of 26.6 µM.
`COc1cccc(-c2nn(-c3ccccc3)cc2-c2ccnc(NCCCNC(=O)c3cccc(C(F)(F)F)c3)c2)c1` showed a GI50 of 1.95 µM and a TGI of 7.37 µM.
In the case of `CC(C)(C)c1cc(C(=O)Nc2ccc(C(=O)NCCN)cc2)cc(C(C)(C)C)c1`, the GI50 is reported as 1.82 µM and the TGI is reported as 3.6 µM.
With `CCOC(=O)Nc1nc2ccccc2[nH]1` the GI50 was 2.75 µM and 2.07 µM and the TGI was > 89.9 µM and 9.09 µM.
`CN1CCN(c2ccc(OC(F)(F)F)c(Nc3ncc4c(n3)-c3c(c(C(N)=O)nn3CCO)CC4)c2)CC1` was tested, and the GI50 was < 0.01 µM and 0.032 µM and the TGI was 11.5 µM.
Work on `Nc1c(C(=O)Nc2ccccn2)sc2nc3c(cc12)C(O)CCC3` (stereo not drawn) yielded a GI50 of 1.08 µM and a TGI greater than 50 µM.
`C[C@]12CC[C@@H]3c4ccc(O)cc4CC[C@H]3[C@@H]1CC[C@@H]2NS(=O)(=O)c1ccc(Br)cc1` showed a GI50 of 3.57 µM and a TGI of 11.2 µM.
In the case of `O=S(=O)(NCCNc1nccc(-c2c(-c3ccc(F)c(O)c3)nc3sccn23)n1)c1ccc(Cl)cc1`, the GI50 is reported as 2.17 µM and the TGI is reported as greater than 50 µM.
Work on `O=C(NCCN1CCCC1)c1ccc(-c2nc3ccc4[nH]ncc4c3c3c2CCCC3)cc1` yielded a GI50 of 0.356 µM and a TGI of 1.38 µM.
`O=C(O)c1cc2ccccc2c2c3c(ccc12)OCO3` gave a GI50 of 153 µM and a TGI of 460 µM.
Compound `Cc1ccc(S(=O)(=O)OCC#CCOS(=O)(=O)c2ccc(C)cc2)cc1` has a GI50 of 1.85 µM and a TGI of 3.88 µM.
With `COc1cc(Cl)cc(-c2nn(-c3cccc(NC(=O)Nc4cccc(C(F)(F)F)c4)c3)cc2-c2ccncc2)c1` the GI50 was 1.05 µM and the TGI was 4.99 µM.
Work on `O=C(Nc1cccc(-n2cc(-c3ccncc3)c(-c3ccc(O)c(Cl)c3)n2)c1)c1ccc2c(c1)OCCO2` yielded a GI50 of 6.88 µM and a TGI greater than 100 µM.
`Cc1ccc(Nc2cc(Cl)c([N+](=O)[O-])cc2[N+](=O)[O-])cc1` gave a GI50 of 1.8 µM and a TGI of 3.58 µM.
With `Cc1cc(-c2nnc(/C=C/c3ccc4c(c3)OCO4)o2)n[nH]1` the GI50 was 10.9 µM and the TGI was 32.7 µM.
`O=C1CC[C@H](N2Cc3c(OCc4ccc(CN5CCOCC5)cc4)cccc3C2=O)C(=O)N1` gave a GI50 greater than 100 µM and a TGI greater than 100 µM.
`Nc1ncnc2c1ncn2C1OC(COS(N)(=O)=O)C(O)C1O` (stereo not drawn) was tested, and the GI50 was 0.0021 µM and 0.0201 µM and the TGI was 0.00465 µM and 0.0422 µM.
`COc1ccc(C(C)c2cc(OC)c(OC)c(OC)c2)cc1` (stereo not drawn) showed a GI50 of 0.0945 µM and a TGI greater than 50 µM.
For `O=C1Nc2cc(-c3cccc(O)c3)ccc2/C1=C/c1ccc[nH]1`, the GI50 was 0.245 µM and the TGI was 0.805 µM.
`NCCCCCNc1noc(Cc2c[nH]c3cc(Br)ccc23)n1` was tested, and the GI50 was 2.13 µM and the TGI was 5.15 µM.
Compound `COCCOCCOCc1n(Cc2ccc3ccccc3c2)c2ccccc2[n+]1Cc1ccc2ccccc2c1` has a GI50 of 0.11 µM and a TGI of 0.659 µM.
Work on `CCCOc1cc2ccccc2cc1C(=O)Nc1nc(NC)c2c(ccc3nccc32)[nH]1` yielded a GI50 of 0.275 µM and a TGI of 1.01 µM.
